In PubChem BioAssay (NCI):
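At the GI50, growth is halved. Definition used: TGI = concentration required for complete inhibition of growth.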

How the values were obtained:
Test in all cases: NCI-60 cell line screen, 384-well format
786-0 renal = test system: 786-0 renal
A498 renal = test system: A498 renal
A549 NSCLC = test system: A549 NSCLC
ACHN renal = test system: ACHN renal
BT-549 breast = test system: BT-549 breast
CAKI-1 renal = test system: CAKI-1 renal
CCRF-CEM leukemia = test system: CCRF-CEM leukemia
COLO 205 colon = test system: COLO 205 colon
DU-145 prostate = test system: DU-145 prostate
EKVX NSCLC = test system: EKVX NSCLC
HCC-2998 colon = test system: HCC-2998 colon
HCT-116 colon = test system: HCT-116 colon
HCT-15 colon = test system: HCT-15 colon
HL-60(TB) leukemia = test system: HL-60(TB) leukemia
HOP-62 NSCLC = test system: HOP-62 NSCLC
HOP-92 NSCLC = test system: HOP-92 NSCLC
HS 578T breast = test system: HS 578T breast
HT29 colon = test system: HT29 colon
IGROV1 ovarian = test system: IGROV1 ovarian
K-562 leukemia = test system: K-562 leukemia
KM12 colon = test system: KM12 colon
LOX IMVI melanoma = test system: LOX IMVI melanoma
M14 melanoma = test system: M14 melanoma
MALME-3M melanoma = test system: MALME-3M melanoma
MCF7 breast = test system: MCF7 breast
MDA-MB-231 breast = test system: MDA-MB-231 breast
MDA-MB-435 melanoma = test system: MDA-MB-435 melanoma
MDA-MB-468 breast = test system: MDA-MB-468 breast
MOLT-4 leukemia = test system: MOLT-4 leukemia
NCI-H226 lung = test system: NCI-H226 lung
NCI-H23 lung = test system: NCI-H23 lung
NCI-H322M lung = test system: NCI-H322M lung
NCI-H460 NSCLC = test system: NCI-H460 NSCLC
NCI-H522 lung = test system: NCI-H522 lung
OVCAR-3 ovarian = test system: OVCAR-3 ovarian
OVCAR-4 ovarian = test system: OVCAR-4 ovarian
OVCAR-5 ovarian = test system: OVCAR-5 ovarian
OVCAR-8 ovarian = test system: OVCAR-8 ovarian
PC-3 prostate = test system: PC-3 prostate
RPMI-8226 leukemia = test system: RPMI-8226 leukemia
RXF 393 renal = test system: RXF 393 renal
SF-268 CNS = test system: SF-268 CNS
SF-295 CNS = test system: SF-295 CNS
SF-539 CNS = test system: SF-539 CNS
SK-MEL-2 melanoma = test system: SK-MEL-2 melanoma
SK-MEL-28 melanoma = test system: SK-MEL-28 melanoma
SK-MEL-5 melanoma = test system: SK-MEL-5 melanoma
SK-OV-3 ovarian = test system: SK-OV-3 ovarian
SN12C renal = test system: SN12C renal
SNB-19 CNS = test system: SNB-19 CNS
SNB-75 CNS = test system: SNB-75 CNS
SR leukemia = test system: SR leukemia
SW-620 colon = test system: SW-620 colon
T-47D breast = test system: T-47D breast
TK-10 renal = test system: TK-10 renal
U251 glioblastoma = test system: U251 glioblastoma
UACC-257 melanoma = test system: UACC-257 melanoma
UACC-62 melanoma = test system: UACC-62 melanoma
UO-31 renal = test system: UO-31 renal

With `COc1cc([C@@H]2c3cc4c(cc3[C@@H](OC3OC5COC(C)OC5C(O)C3O)[C@H]3COC(=O)[C@H]23)OCO4)cc(OC)c1O` (stereo not given in full) the GI50 ([…]-0 renal) was 1.59 µM, the TGI (786-0 renal) was 7.56 µM and the GI50 (A498 renal) was 2 µM. The TGI (A498 renal) was 19 µM, the GI50 (A549 NSCLC) was 1.22 µM and the TGI (A549 NSCLC) was > 47 µM. For the same molecule, the GI50 (ACHN renal) was 1.8 µM, the TGI (ACHN renal) was 10.3 µM and the GI50 (BT-549 breast) was 0.877 µM. For the same molecule, the TGI (BT-549 breast) was 4.74 µM, the GI50 (CAKI-1 renal) was 1.61 µM and the TGI (CAKI-1 renal) was > 41 µM. For the same molecule, the GI50 (CCRF-CEM leukemia) was 0.0638 µM, the TGI (CCRF-CEM leukemia) was 0.2 µM and the GI50 (COLO 205 colon) was 0.433 µM. The TGI (COLO 205 colon) was 10.6 µM, the GI50 (DU-145 prostate) was 1.52 µM and the TGI (DU-145 prostate) was 5.25 µM. For the same molecule, the GI50 (EKVX NSCLC) was 11.3 µM, the TGI (EKVX NSCLC) was > 43.6 µM and the GI50 (HCC-2998 colon) was 1.82 µM. It also gave a TGI (HCC-2998 colon) of 4.15 µM, a GI50 (HCT-116 colon) of 0.56 µM and a TGI (HCT-116 colon) of 25.9 µM. The GI50 (HCT-15 colon) was 2.01 µM, the TGI (HCT-15 colon) was 13.6 µM and the GI50 (HL-60(TB) leukemia) was 0.0215 µM. The TGI (HL-60(TB) leukemia) was 0.0492 µM, the GI50 (HOP-62 NSCLC) was 0.747 µM and the TGI (HOP-62 NSCLC) was 2.51 µM. For the same molecule, the GI50 (HOP-92 NSCLC) was 2.46 µM, the TGI (HOP-92 NSCLC) was > 43.1 µM and the GI50 (HS 578T breast) was 0.463 µM. It also gave a TGI (HS 578T breast) of 4.82 µM, a GI50 (HT29 colon) of 2.28 µM and a TGI (HT29 colon) of 7.3 µM. For the same molecule, the GI50 (IGROV1 ovarian) was 4.27 µM, the TGI (IGROV1 ovarian) was > 37.6 µM and the GI50 (K-562 leukemia) was 0.91 µM. For the same molecule, the TGI (K-562 leukemia) was 6.36 µM, the GI50 (KM12 colon) was 1.68 µM and the TGI (KM12 colon) was 7.91 µM. It also gave a GI50 (LOX IMVI melanoma) of 1.66 µM, a TGI (LOX IMVI melanoma) of 15.9 µM and a GI50 (M14 melanoma) of 1.32 µM. The TGI (M14 melanoma) was 6.64 µM, the GI50 (MALME-3M melanoma) was 6.15 µM and the TGI (MALME-3M melanoma) was 43.5 µM. The GI50 (MCF7 breast) was 0.716 µM, the GI50 (MDA-MB-231 breast) was 1.88 µM and the TGI (MDA-MB-231 breast) was 4.62 µM. The GI50 (MDA-MB-435 melanoma) was 3.96 µM, the TGI (MDA-MB-435 melanoma) was 20.4 µM and the GI50 (MDA-MB-468 breast) was 1.13 µM. For the same molecule, the TGI (MDA-MB-468 breast) was 2.78 µM, the GI50 (MOLT-4 leukemia) was 0.0176 µM and the TGI (MOLT-4 leukemia) was 0.0389 µM. The GI50 (NCI-H226 lung) was 2.48 µM, the TGI (NCI-H226 lung) was > 37.2 µM and the GI50 (NCI-H23 lung) was 0.809 µM. The TGI (NCI-H23 lung) was 4.37 µM, the GI50 (NCI-H322M lung) was 29.1 µM and the TGI (NCI-H322M lung) was > 96.7 µM. For the same molecule, the GI50 (NCI-H460 NSCLC) was 0.0915 µM, the TGI (NCI-H460 NSCLC) was 7.61 µM and the GI50 (NCI-H522 lung) was 1.21 µM. The TGI (NCI-H522 lung) was 7.35 µM, the GI50 (OVCAR-3 ovarian) was 2.64 µM and the TGI (OVCAR-3 ovarian) was 13.8 µM. The GI50 (OVCAR-4 ovarian) was 39.9 µM, the GI50 (OVCAR-5 ovarian) was 3.37 µM and the TGI (OVCAR-5 ovarian) was 13.8 µM. The GI50 (OVCAR-8 ovarian) was 1.53 µM, the TGI (OVCAR-8 ovarian) was 10.3 µM and the GI50 (PC-3 prostate) was 20.4 µM. The GI50 (RPMI-8226 leukemia) was 0.0361 µM, the TGI (RPMI-8226 leukemia) was 0.564 µM and the GI50 (RXF 393 renal) was 9.62 µM. It also gave a TGI (RXF 393 renal) of 38.3 µM, a GI50 (SF-268 CNS) of 1.36 µM and a TGI (SF-268 CNS) of 6.87 µM. The GI50 (SF-295 CNS) was 0.851 µM, the TGI (SF-295 CNS) was 3.01 µM and the GI50 (SF-539 CNS) was 0.976 µM. For the same molecule, the TGI (SF-539 CNS) was 4.38 µM, the GI50 (SK-MEL-2 melanoma) was 4.15 µM and the TGI (SK-MEL-2 melanoma) was 8.27 µM. The GI50 (SK-MEL-28 melanoma) was 2.61 µM, the TGI (SK-MEL-28 melanoma) was 11.4 µM and the GI50 (SK-MEL-5 melanoma) was 0.37 µM. For the same molecule, the TGI (SK-MEL-5 melanoma) was 1.71 µM, the GI50 (SK-OV-3 ovarian) was 2.94 µM and the TGI (SK-OV-3 ovarian) was 14.6 µM. It also gave a GI50 (SN12C renal) of 1.28 µM, a TGI (SN12C renal) of 5.72 µM and a GI50 (SNB-19 CNS) of 1.08 µM. For the same molecule, the TGI (SNB-19 CNS) was > 23.1 µM, the GI50 (SNB-75 CNS) was 1.36 µM and the TGI (SNB-75 CNS) was 6.63 µM. The GI50 (SR leukemia) was 0.0161 µM, the TGI (SR leukemia) was 0.0494 µM and the GI50 (SW-620 colon) was 0.441 µM. For the same molecule, the TGI (SW-620 colon) was 5.58 µM, the GI50 (T-47D breast) was 1.04 µM and the TGI (T-47D breast) was > 95.3 µM. It also gave a GI50 (TK-10 renal) of 2.88 µM, a TGI (TK-10 renal) of 11.3 µM and a GI50 (U251 glioblastoma) of 0.533 µM. The TGI (U251 glioblastoma) was 5.05 µM, the GI50 (UACC-257 melanoma) was 16.6 µM and the TGI (UACC-257 melanoma) was > 75.9 µM. The GI50 (UACC-62 melanoma) was 1.33 µM, the TGI (UACC-62 melanoma) was 16.6 µM and the GI50 (UO-31 renal) was 22.2 µM. For the same molecule, the TGI (UO-31 renal) was > 77.9 µM.
